The values that follow come from patent US7825253B2, “2-aminoquinoline derivatives” (Hoffmann-La Roche Inc., priority 2006, dated 2010).

For data set [1], the target named is T1, recombinant human 5-HT5A receptor (Homo sapiens, UniProt P47898).
T1 construct: expressed in transfected cells; host or cells: Human Embryonic Kidney-EBNA (HEK-EBNA) cells, transient cDNA expression; membranes
Put plainly: [3H]LSD radioligand binding assay. As to conditions: [3H]LSD approx. 1 nM; membranes from HEK-EBNA cells transiently expressing 5-HT5A; Ki from IC50 by Cheng-Prussoff. The procedure, abridged: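 Membranes from HEK-EBNA cells transiently expressing the receptor, with ~1 nM [3H]LSD in 50 mM Tris pH 7.4 (1 mM EGTA, 10 mM MgCl2, 10 μM pargyline), SPA read-out, 120 min at room temperature. Methiothepin 2 μM defined non-specific binding; 10-point IC50 converted to Ki by Cheng-Prusoff.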

T1 sequence (P47898 whole entry): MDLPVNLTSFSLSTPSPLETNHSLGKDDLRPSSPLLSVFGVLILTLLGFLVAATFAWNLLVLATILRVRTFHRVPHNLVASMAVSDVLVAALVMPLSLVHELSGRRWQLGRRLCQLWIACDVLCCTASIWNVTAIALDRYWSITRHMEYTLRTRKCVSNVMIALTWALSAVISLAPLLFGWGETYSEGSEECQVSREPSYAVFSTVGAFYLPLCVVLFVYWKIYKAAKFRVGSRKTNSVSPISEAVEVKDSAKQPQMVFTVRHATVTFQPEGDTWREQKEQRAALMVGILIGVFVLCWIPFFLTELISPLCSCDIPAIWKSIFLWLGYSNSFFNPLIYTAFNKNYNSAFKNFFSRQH

The compound `COc1ccccc1CNc1ccc2c(CNC(=O)c3ccc(F)cc3)cccc2n1` [Example 146] gave a melting point of 162.5 °C. The Ki in data set [1] was 86 nM.

On to `COc1ccccc1CNc1ccc2c(-c3noc(C)n3)cccc2n1` [Example 150, (2-Methoxy-benzyl)-[5-(5-methyl-[1,2,4]oxadiazol-3-yl)-quinolin-2-yl]-amine], for which the melting point turned out to be 121.5 °C.

Regarding `COc1ccccc1CNc1ccc2c(C(=N)c3ccc(F)cc3)cccc2n1` [Example 136, {5-[(4-Fluoro-phenyl)-imino-methyl]-quinolin-2-yl}-(2-methoxy-benzyl)-amine], the melting point turned out to be 155 °C. In data set [1], the Ki amounted to 35.6 nM.

For the compound `Cc1ccc(CNc2ccc3c(CNC(=O)c4ccc(F)cc4)cccc3n2)o1` [Example 126, 4-Fluoro-N-{2-[(5-methyl-furan-2-ylmethyl)-amino]-quinolin-5-ylmethyl}-benzamide], the melting point amounted to 173 °C.

`Cc1ccc(CNc2ccc3c(CNc4cccnc4)cccc3n2)o1` [Example 21, (5-Methyl-furan-2-ylmethyl)-[5-(pyridin-3-ylaminomethyl)-quinolin-2-yl]-amine]: the Ki in data set [1] worked out at 35.8 nM.

One may read the Ki as the dissociation constant of the complex between target and ligand, obtained from inhibition or displacement. What is called melting point is the temperature, or range, at which the solid turns liquid.
